From patent US20080287396A1, “Phosphonated Fluoroquinolones, Antibacterial Analogs Thereof, and Methods for the Prevention and Treatment of Bone and Joint Infections” (TARGANTA THERAPEUTICA INC., priority 2005, published 2008)
≈ marks a conversion by molar mass, not a printed value. Entries after “also recorded” stand apart in the source; their conditions may differ.

Experiments:
[1] = system: S. aureus strains ATCC13709 and RN4220; assay: microbe, parasite or virus in culture; type: cell-based; conditions: Staphylococcus aureus, read-out: minimum inhibitory concentration (MIC)
Description: (§1) Susceptibility of S. aureus strains ATCC13709 and RN4220 to the commercial antibiotics and synthesized compounds was determined by following the guidelines set by the Clinical and Laboratory Standards Institute (formerly the National Committee for Clinical Laboratory Standards) (M26-A). Compounds were diluted two-fold serially in DMSO and transferred to cation-adjusted Mueller Hinton broth (CAMHB; Becton Dickinson). 50 μL of compounds diluted in CAMHB was mixed with 100 μL of bacteria diluted in CAMHB in 96-well microtiter plates. The final number of micro-organisms in the assay was 5×10^5 c.f.u. per mL and the final concentration of DMSO in the assay was 1.25%. Assays were set up in duplicate and incubated at 37° C. for 18 h. The concentration of compound that inhibited visible growth was reported as the minimum inhibitory concentration (MIC).

[2] = Bone powder binding, fluorometric detection; conditions: for Binding to bone (%) Fluorescence: 1 mg/ml compound, bone meal powder 10 mg/ml in PBS, 37° C., 1 h
How it was run: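 LC/MS method: 100 μM compound in 0.1 M Tris-HCl pH 7, 0.15 M NaCl shaken 10 min with or without ground rat tibia, centrifuged, unbound compound measured in supernatant. Fluorometric method: 1 mg/ml compound in 10 mg/ml bone meal/PBS, 1 h at 37 °C, pellet washed. Supernatant fluoroquinolone read at 280/465 nm; bound amount taken as input minus recovered.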

S. aureus ATCC 13709 = assay: Prophylactic model of bone infection in rats; type: in vivo, rat; conditions: for bacterial titer compared with untreated group: 10 mg/kg IV 1 h after infection (positive control); for prophylactic effect in rat model of bone infection, in words: Table 4 and FIGS. 6-8, doses as in Table 4
Description: To determine the activity in vivo of bisphosphonated prodrugs of fluoroquinolones, compounds 52 and 107, derivatives of parent compounds moxifloxacin 3 (for 52), and compounds 39, 44, 49, 54, 121, 129, 141, 145, 149, derivatives of parent compound gatifloxacin 15, were used in a prophylactic model for infection. Specifically, S. aureus ATCC 13709 cells were grown overnight at 37° C. in brain heart infusion broth (BHIB). Cells were subcultured into fresh BHIB and incubated for 4 to 5 h at 37° C. The cells were washed twice with phosphate-buffered saline (PBS) and resuspended in BHIB supplemented with 10% (vol./vol.) fetal bovine serum at a density of approximately 10^10 colony forming units (CFU)/ml (based upon turbidimetry). The suspension was aliquoted and a portion was used to check the CFU count. The culture was stored frozen (−80° C.) and was used without subculture. For use as an inoculum the culture was thawed, diluted in PBS and kept in an ice bath until it was used.
Animals were infected as described by O'Reilly et al. (Antimicrobial Agents and Chemotherapy (1992), 36(12): 2693-97) to generate the bone infection. Female CD rats (age, 57 to 70 days; n=5/group; Charles River, St-Constant, Canada) were anaesthetized by isofluorane before and during the surgery. Following complete induction of anesthesia, the rat was placed ventral side up and hair was shaved from the surgical site. The skin over the leg was cleaned and disinfected (proviodine-ethanol 70%). A longitudinal incision below the knee joint was made in the sagital plane. The incision was made over the bone below the “knee joint” (tibia head or condyle) but not completely extending to the ankle. A high speed drill fitted with a 2 mm bulb bit was used to drill a hole into the medullar cavity of the tibia. Rats were injected intra-tibially with 0.05 ml 5% sodium morrhuate (sclerosing agent) and then with 0.05 ml of S. aureus suspension (ca. 5×10^5 CFU/rat). The hole was sealed by applying a small amount of dry dental cement which immediately absorbs fluids and adheres to the site. The wound was closed using 3 metal skin clips. Moxifloxacin 3 (as a positive control) was injected once at 10 mg/kg intravenously 1 h postinfection in saline, while the fluoroquinolone prodrugs (prepared in 0.9% saline) were injected as a single intravenous bolus dose at different time points prior to the infection. For comparison, the parent drug (moxifloxacin 3 or gatifloxacin 15) was also injected intravenously once at a molar equivalent dose at the same time point prior the infection.
Infected rats were sacrificed by CO2 asphyxiation 24 h postinfection to monitor the bacterial CFU count. Infected tibiae were removed, dissected free of soft tissue, and weighed. The bones were ground using a metal ball mill, resuspended in 5 ml 0.9% NaCl, serially diluted and processed for quantitative cultures. For compounds 39, 44, 49, 54, 141, 145, 149, 1 ml of the 0.9% NaCl solution was added to 50 mg of charcoal before serial dilutions. Treatment efficacies were measured in terms of Log viable bacteria (Log CFU per gram of bone). The results obtained for each group of rats were evaluated by calculating the mean Log CFU and standard deviation. The limit of detection is 2 Log CFU/g of bone. Statistical comparisons of viable bacterial counts for the different treated and untreated groups were performed with Dunnett's multiple-comparison test. Differences were considered significant when the P value was <0.05 when comparing treated infected animals to the untreated infected ones.

Hela cells = assay: Cytotoxicity assay (MTS reduction); type: cell-based; conditions: concentrations up to 100 μM, 18 h, MTS reagent; data not shown
Description: Selected compounds were also tested for their ability to inhibit growth of mammalian cells so as to ascertain levels of cytotoxicity to the mammalian host, via an assay measuring the biological reduction of the inner salt of (3-(4,5-dimethylthiazol-2-yl)-5-(3-carboxymethoxyphenyl)-2-(4-sulfophenyl)-2H-tetrazolium (MTS reagent). Assays were performed in 96-well microtiter plates. Briefly, compounds at 100, 50, 25, and 12.5 μM concentrations were incubated with 2×10^4 Hela cells per well in Dulbecco's Modified Eagle Medium (Invitrogen Corporation) containing 1% Bovine Growth Serum (HyClone) for 18 h at 37° C. under 5% CO2.

[3] = Bone powder binding, LC/MS detection; conditions: 100 μM compound, Tris-HCl pH 7, 0.15M NaCl, ground rat tibia bone, 10 min
Description: The ability of the example molecules to bind to bone powder was established in two parallel fashions, using either LC/MS or fluorometric detection. For LC/MS detection, a stock solution (5 mM) of the compound to be tested was added to 0.1M Tris-HCl buffer pH 7, 0.15M NaCl to reach a final concentration of 100 μM. Triplicate samples (1 mL) of the compound solutions were intensively shaken for 10 min with or without 25 mg of fresh or 20 mg of vacuum dried ground rat tibia bone. The samples were then centrifuged for 15 min at 10 000 g. The presence of unbound compound was measured by injection of 30 μL of each of the supernatants into an Agilent 1100™ LC/UV system. For fluorometric detection, an individual compound was dissolved in PBS or water (compound 52) and resuspended at a concentration of 1 mg/ml in a slurry of bone meal powder (Now Foods, Bloomingdale, Ill., USA) in PBS at 10 mg/ml. The suspension of drug/prodrug in bone meal powder was incubated at 37° C. for 1 h to allow for binding, and centrifuged at 13 000 rpm for 2 min, before recovering the supernatant. The bone meal powder pellet was then washed three times with 1 ml of PBS. All supernatants were saved and assessed for fluoroquinolone content by fluorescence measurements at excitation/emission wavelengths of 280/465 nm. The amount of fluoroquinolone was determined from standard curves generated for each experiment. Amount of drug/prodrug bound to bone powder was deduced from the difference between the input amount (typically 1 mg) and the amount recovered in the supernatants after binding. In all binding experiments, >99% of input drug was recovered in the supernatant for the parent drugs.

[4] = system: S. aureus strains ATCC13709 and RN4220; assay: Susceptibility testing (MIC) in the presence of serum; type: cell-based; conditions: Staphylococcus aureus, ATCC13709, read-out: MIC in the presence of 50% mouse serum in the medium
Description: as §1
Susceptibility testing experiments were also carried out in the presence of serum. These experiments were carried out similar to the susceptibility testing with the following modifications. 75 μL of compounds diluted in CAMHB was mixed with 75 μL of bacteria diluted in 100% serum from any given source (commercial pooled mouse serum (MS) and human serum (HS), Equitech-Bio Inc.) or diluted in 8% purified human serum albumin (HSA) (Calbiochem). […]

[5] = Regeneration of drug from bone powder-bound prodrug; type: in vitro ADME; conditions: PBS vs serum
Description: Amounts of drug “regenerated” from the phosphonated parent prodrug were measured as follows. Washed bone powder-bound prodrugs from the above section were resuspended in 400 μL PBS or in 400 μL 50% (v/v in PBS) human or rat serum. […] Methanol (5× volume relative to supernatant) was added to each supernatant and the mixture was vortexed on a floor model vortex for 15 min to extract freed fluoroquinolone. The mixture was then centrifuged at 10 000 rpm for 15 min to pellet the insoluble material. The supernatant containing the extracted fluoroquinolone was recovered and evaporated to dryness in a speed vac. The dried pellets were resuspended in PBS and the amount of fluoroquinolone was determined by fluorescence measurements as described above. The percentage of drug regenerated was deduced from the difference between amount of bound prodrug and the amount of regenerated drug. The identity of regenerated drug was deduced by MIC determination; MICs of regenerated material matched those of parent drugs but not those of prodrugs.

[6] = ATCC13709, CAMHB, 37° C., 18 h, data not shown
[7] = 20 mg/kg IV, 3 days prior to infection

Row | Compound | MIC [1, 6] [µg/mL] | Binding to bone (%) Fluorescence [2] [%] | cytotoxicity (Hela cells) | effect of the medium (presence or absence of serum) on regeneration rate [5] | prophylactic effect in rat model of bone infection, in words (S. aureus ATCC 13709) | further results
1 | COc1c(N2C[C@@H]3CCCN[C@@H]3C2)c(F)cc2c(=O)c(C(=O)O)cn(C3CC3)c12 [Compound 3, Moxifloxacin, reference compound] | 0.5 to 1 (≈ 1.25 to 2.49 µM) | 0 |  |  |  | bacterial titer compared with untreated group (S. aureus ATCC 13709): significant decrease in the bacterial titer; bacterial titer compared with untreated group (S. aureus ATCC 13709; listed as moxifloxacin 3): significant (p<0.05) decrease in bacterial titer; also recorded: significant (p-value ≦0.0002) decrease in bacterial titer; prophylaxis by the parent drug, in words (S. aureus ATCC 13709; used five or two days prior to infection): unable to exhibit such efficient prophylaxis
2 | COc1c(N2CCNC(C)C2)c(F)cc2c(=O)c(C(=O)O)cn(C3CC3)c12 (stereo not shown) [Compound 15, Gatifloxacin, reference compound] | 0.5 to 1 (≈ 1.33 to 2.66 µM) | 0 |  |  |  | prophylactic effect on bacterial titer (S. aureus ATCC 13709; 10 mg/Kg (equivalent dose) 48 h prior to infection (FIG. 8)): without effect
3 | COc1c(N2CCNC(C)C2)c(F)cc2c(=O)c(C(=O)OCCCC(P(=O)(O)O)P(=O)(O)O)cn(C3CC3)c12 (stereo not shown) [Compound 18, 4,4-bisphosphonobutyl 7-(3-methylpiperazin-1-yl)-1-cyclopropyl-6-fluoro-1,4-dihydro-8-methoxy-4-oxoquinoline-3-carboxylate] |  |  | no signs of any cytotoxicity |  |  | Binding to bone (%) LC/MS [3]: 96.0 ± 2.4%
4 | CCOP(=O)(OCC)C(CCCCOC(=O)c1cn(C2CC2)c2c(OC)c(N3C[C@@H]4CCCN[C@@H]4C3)c(F)cc2c1=O)P(=O)(OCC)OCC.O=C(O)C(F)(F)F [Compound 26, 5,5-bis(diethylphosphono)pentyl 7-((4aS,7aS)-octahydropyrrolo[3,4-b]pyridin-6-yl)-1-cyclopropyl-6-fluoro-1,4-dihydro-8-methoxy-4-oxoquinoline-3-carboxylate, trifluoroacetate salt] |  |  | no signs of any cytotoxicity |  |  | MIC ([1]; ATCC13709, 18 h): 32 µg/mL; MIC [4]: 0.5 µg/mL
5 | COc1c(N2CCNC(C)C2)c(F)cc2c(=O)c(C(=O)OCCCCC(P(=O)(O)O)P(=O)(O)O)cn(C3CC3)c12 (stereo not shown) [Compound 28, 5,5-bisphosphonopentyl 7-(3-methylpiperazin-1-yl)-1-cyclopropyl-6-fluoro-1,4-dihydro-8-methoxy-4-oxoquinoline-3-carboxylate] |  |  | no signs of any cytotoxicity |  |  | Binding to bone (%) LC/MS [3]: 91.9 ± 5.5%
6 | COc1c(N2CCN(C(=O)OC(C)OC(=O)CCCC(=O)NC(P(=O)(O)O)P(=O)(O)O)C(C)C2)c(F)cc2c(=O)c(C(=O)O)cn(C3CC3)c12 (stereo not shown) [Compound 39] |  | 94.3 | no signs of any cytotoxicity | fairly similar rates | unable to produce a positive result in vivo | Measured bacterial titer (Log CFU/g of bone) Test compound (S. aureus ATCC 13709; [7]): 4.63 ± 0.39 Log CFU/g of bone
7 | COc1c(N2CCN(C(=O)OC(C)OC(=O)CCCC(P(=O)(O)O)P(=O)(O)O)C(C)C2)c(F)cc2c(=O)c(C(=O)O)cn(C3CC3)c12 (stereo not shown) [Compound 44] | 1 to 8 (≈ 1.41 to 11.3 µM) | 88.4 |  | fairly similar rates | unable to produce a positive result in vivo | Measured bacterial titer (Log CFU/g of bone) Test compound (S. aureus ATCC 13709; [7]): 4.72 ± 0.83 Log CFU/g of bone
8 | COc1c(N2CCN(C(=O)CC(C)(C)c3cc(P(=O)(O)CP(=O)(O)O)ccc3OC(C)=O)C(C)C2)c(F)cc2c(=O)c(C(=O)O)cn(C3CC3)c12 (stereo not shown) [Compound 141] | 4 (≈ 5.32 µM) | 36.6 |  | fairly similar rates | efficient prophylactic effect | binding to osseous matter, in words ([2]; bisphosphonates bearing three hydroxy groups): less effectively bound; Measured bacterial titer (Log CFU/g of bone) Test compound (S. aureus ATCC 13709; 45.4 mg/kg IV, 2 days prior to infection): 2.40 ± 0.44 Log CFU/g of bone
